Assay results from ChEMBL document CHEMBL1201862, “PubChem BioAssay data set” (2004).
Activity calls are given as the source filed them.

Columns and labels:
[1] = molecular target: T1, DNA repair and recombination protein RAD54-like (Homo sapiens, UniProt Q92698); assay: inhibitors of human RAD54 branch migration, confirmation, biochemical, fluorescence, cherry-picked samples, dose series (AID 651657); format: functional
T1 sequence (Q92698 whole entry): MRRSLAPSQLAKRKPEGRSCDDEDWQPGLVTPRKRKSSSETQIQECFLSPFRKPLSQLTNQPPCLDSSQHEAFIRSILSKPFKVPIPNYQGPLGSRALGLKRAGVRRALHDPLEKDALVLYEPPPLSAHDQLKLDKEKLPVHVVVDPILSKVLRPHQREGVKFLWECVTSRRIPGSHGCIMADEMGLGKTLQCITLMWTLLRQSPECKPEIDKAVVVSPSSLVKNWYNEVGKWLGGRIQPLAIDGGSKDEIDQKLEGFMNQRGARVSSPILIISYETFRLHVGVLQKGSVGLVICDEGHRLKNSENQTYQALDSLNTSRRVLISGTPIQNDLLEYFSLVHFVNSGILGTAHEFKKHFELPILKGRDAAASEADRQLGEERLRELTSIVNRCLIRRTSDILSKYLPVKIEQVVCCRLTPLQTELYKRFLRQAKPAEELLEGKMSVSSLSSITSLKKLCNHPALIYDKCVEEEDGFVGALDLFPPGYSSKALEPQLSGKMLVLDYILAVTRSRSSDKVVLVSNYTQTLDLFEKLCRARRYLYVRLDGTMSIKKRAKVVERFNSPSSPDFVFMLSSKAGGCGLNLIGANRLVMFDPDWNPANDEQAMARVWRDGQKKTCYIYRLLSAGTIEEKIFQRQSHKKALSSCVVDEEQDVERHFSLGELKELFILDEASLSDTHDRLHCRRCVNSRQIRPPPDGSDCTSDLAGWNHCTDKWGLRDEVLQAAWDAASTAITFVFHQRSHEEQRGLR

[2] = molecular target: Dual specificity protein phosphatase 3 (Homo sapiens, UniProt P51452); assay: VHR phosphatase inhibition, dose response, selectivity assay for STEP inhibitor project, biochemical (AID 602374); format: functional; conditions: read-out: IC50_Mean
[3] = molecular target: T2, Tyrosine-protein phosphatase non-receptor type 5 (Homo sapiens, UniProt P54829); assay: STEP phosphatase inhibitors, confirmation, biochemical, fluorescence intensity, uHTS hits (AID 602372); format: functional; conditions: read-out: IC50_Mean
T2 sequence (P54829 whole entry): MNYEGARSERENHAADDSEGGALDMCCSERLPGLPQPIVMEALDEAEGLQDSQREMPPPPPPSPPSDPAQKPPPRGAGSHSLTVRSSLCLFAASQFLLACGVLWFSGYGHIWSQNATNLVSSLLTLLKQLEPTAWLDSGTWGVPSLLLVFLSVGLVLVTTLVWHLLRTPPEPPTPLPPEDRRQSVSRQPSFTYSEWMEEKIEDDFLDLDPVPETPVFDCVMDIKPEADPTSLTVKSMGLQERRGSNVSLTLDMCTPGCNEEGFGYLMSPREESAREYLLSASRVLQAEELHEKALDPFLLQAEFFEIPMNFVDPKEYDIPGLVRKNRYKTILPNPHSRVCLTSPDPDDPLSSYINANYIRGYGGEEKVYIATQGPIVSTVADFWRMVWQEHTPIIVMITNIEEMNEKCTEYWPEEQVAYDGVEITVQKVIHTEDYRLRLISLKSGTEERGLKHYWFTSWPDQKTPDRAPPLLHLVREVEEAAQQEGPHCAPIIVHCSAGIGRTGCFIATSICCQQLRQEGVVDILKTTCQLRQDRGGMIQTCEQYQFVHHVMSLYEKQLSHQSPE

[4] = molecular target: T3, Tyrosine-protein phosphatase non-receptor type 11 (Homo sapiens, UniProt Q06124); assay: SHP2 phosphatase inhibition, dose response, selectivity assay for STEP inhibitor project, biochemical (AID 602367); format: functional; conditions: read-out: IC50_Mean
T3 sequence (Q06124 whole entry): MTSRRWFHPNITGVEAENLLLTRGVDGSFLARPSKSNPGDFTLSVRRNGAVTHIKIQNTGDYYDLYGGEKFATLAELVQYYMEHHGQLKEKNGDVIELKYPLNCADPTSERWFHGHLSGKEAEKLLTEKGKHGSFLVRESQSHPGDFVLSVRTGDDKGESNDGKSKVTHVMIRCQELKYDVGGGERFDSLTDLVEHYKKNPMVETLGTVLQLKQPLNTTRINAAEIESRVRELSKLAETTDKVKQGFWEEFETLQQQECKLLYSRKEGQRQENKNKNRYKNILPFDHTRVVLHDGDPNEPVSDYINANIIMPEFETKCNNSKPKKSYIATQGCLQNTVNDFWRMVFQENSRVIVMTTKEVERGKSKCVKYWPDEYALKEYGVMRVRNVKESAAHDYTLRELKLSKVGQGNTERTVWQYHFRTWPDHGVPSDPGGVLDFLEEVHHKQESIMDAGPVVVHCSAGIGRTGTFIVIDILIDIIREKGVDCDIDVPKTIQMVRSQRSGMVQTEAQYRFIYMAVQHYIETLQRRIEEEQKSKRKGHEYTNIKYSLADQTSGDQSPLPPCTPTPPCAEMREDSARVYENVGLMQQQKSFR

[5] = microbe, parasite or virus in culture; format: functional; conditions: Mycobacterium tuberculosis
[6] = C. albicans growth with fluconazole, confirmation, fluorescence, retest (AID 2467); format: functional, cell-based
[7] = NIH-3T3 fibroblast cytotoxicity, dose response, cytotoxicity control, cell-based, fluorescence, Alamar Blue, secondary assay (AID 2327); format: functional;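 note: NIH-3T3 mouse fibroblasts cultured with fluconazole at 8 µg/mL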
[8] = molecular target: Heat shock protein HSP 90-alpha (Homo sapiens, UniProt P07900); format: functional, organism-based
Prothrombin = Prothrombin (Bos taurus, UniProt P00735); assay: thrombin inhibition, dose response, biochemical, fluorescence polarization, uHTS hits (AID 602369); format: functional
[9] = molecular target: 26S proteasome non-ATPase regulatory subunit 14 (Homo sapiens, UniProt O00487); assay: inhibition of proteasome subunit RPN11 – biochemical, fluorescence polarization, uHTS hits, confirmation (AID 602368); format: functional
[10] = molecular target: 72 kDa type IV collagenase (Homo sapiens, UniProt P08253); assay: Dose Response validation of uHTS RPN11 inhibitor hits using a MMP-2 Fluorescence assay.; format: functional
[11] = molecular target: T4, Endoribonuclease toxin MazF (Escherichia coli K-12, UniProt P0AE70); assay: fluorescent RNA oligo signal without MazF, dose response, counter-screen for MazEF activator project, biochemical, fluorescence, single-stranded RNase substrate (AID 588502); format: functional
T4 sequence (P0AE70 whole entry): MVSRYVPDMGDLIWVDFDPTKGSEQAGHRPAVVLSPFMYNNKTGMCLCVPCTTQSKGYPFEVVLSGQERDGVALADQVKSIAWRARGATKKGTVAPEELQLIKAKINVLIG

cells [12] = format: functional
[13] = Luminescence Cell-Based Dose Retest to Confirm Inhibitors of Cancer Stem Cells. [Related pubchem assays (depositor defined):AID2717, AID2721]; format: functional; conditions: Homo sapiens
[14] = molecular target: T4, Endoribonuclease toxin MazF; assay: MazF toxin RNase activators, dose response, biochemical, fluorescence, single-stranded RNA substrate, uHTS hits (AID 588481); format: functional
[15] = molecular target: Glucose-6-phosphate 1-dehydrogenase (Homo sapiens, UniProt P11413); assay: human G6PD enzyme inhibitors, dose response, selectivity assay for P. falciparum G6PD inhibitor project, biochemical, fluorescence (AID 504792); format: functional
[16] = AlphaScreen signal interference compounds, dose response, artefact control for ARNT-TACC3 interaction inhibitor project, biochemical, luminescence, cherry-pick (AID 651705); format: functional;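 note: AlphaScreen bead proximity signal that flags compounds interfering with the detection technology; potency reflects signal decrease which marks the compound as an assay artifact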
[17] = molecular target: T5, Sentrin-specific protease 8 (Homo sapiens, UniProt Q96LD8); format: functional
T5 sequence (Q96LD8 whole entry): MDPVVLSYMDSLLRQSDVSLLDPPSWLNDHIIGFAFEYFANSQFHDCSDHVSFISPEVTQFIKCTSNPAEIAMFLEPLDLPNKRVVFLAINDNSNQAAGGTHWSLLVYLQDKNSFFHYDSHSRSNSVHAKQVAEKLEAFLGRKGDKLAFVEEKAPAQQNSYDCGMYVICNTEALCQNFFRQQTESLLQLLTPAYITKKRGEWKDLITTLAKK

[18] = molecular target: T5, Sentrin-specific protease 8; format: functional; remark: listed apart in the source
[19] = molecular target: T6, Ubiquitin-conjugating enzyme E2 N (Homo sapiens, UniProt P61088); format: functional;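 note: Dose-response confirmation in a TR-FRET assay detecting UBC13-driven polyubiquitin chain formation, inhibition measured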
T6 sequence (P61088 whole entry): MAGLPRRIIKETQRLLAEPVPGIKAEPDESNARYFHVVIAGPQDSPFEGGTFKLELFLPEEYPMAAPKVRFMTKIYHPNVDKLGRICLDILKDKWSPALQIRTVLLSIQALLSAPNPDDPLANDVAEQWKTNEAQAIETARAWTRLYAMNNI

[20] = Luminescence Cell-Based Dose Response HTS to Identify Inhibitors of 5'UTR Stem-Loop Driven Prion Protein mRNA Translation in H4 Neuroglioblastoma Cells. [Related pubchem assays: 1827 (Project Summary), 1813 (Primary HTS)]; format: functional
[21] = inhibitors of firefly luciferase expression or activity, dose response, H4 neuroglioma cells, luminescence (AID 1990); format: functional, cell-based
[22] = inhibitors of SNCA 5'UTR-driven reporter translation, confirmation, H4 neuroglioma cells, luminescence (AID 1988); format: functional, cell-based
cells [23] = format: functional, cell-based
[24] = cytotoxicity toward NIH3T3 fibroblasts, dose response, counter-screen, cell-based, ATP luminescence, mouse fibroblasts (AID 2010); format: functional;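 note: cells exposed to compound for about 90 hours before reading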
cells [25] = format: functional, cell-based; remark: listed apart in the source
H9c2 = assay: cells; format: functional, cell-based; conditions: Rattus norvegicus, H9c2, Myocardium;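 note: confirmatory concentration-response retest of ultra-high-throughput screening hits for modulation of myocardial damage; cell death induced by hydrogen peroxide oxidative stress; compound pretreatment for 60 min then peroxide exposure for 2 h; potency is for protecting the cells against peroxide damage rather than for killing them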
[26] = inhibitors of intracellular T. cruzi replication, confirmation, NIH3T3 host cells, beta-gal luminescence (AID 2044); format: functional, cell-based;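 note: intracellular parasites grown in NIH/3T3 mouse fibroblasts as host cells; luminescent beta-galactosidase reporter signal from transgenic T. cruzi replicating inside host cells; inhibitors lower the luminescence signal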
[27] = system: Streptococcus sp. 'group A'; assay: growth inhibition of control SK(-) GAS strain, dose response, counter-screen for streptokinase expression inhibitor project, luminescence, kanamycin, BacTiterGlo, confirmation (AID 1900); format: functional, organism-based
Streptococcus = assay: Group A Streptococcus viability loss, dose response, counter-screen for streptokinase expression inhibitor project, luminescence, BacTiterGlo (AID 1915); format: functional, organism-based;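 note: potency for reduction of bacterial viability or growth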
INS1 = assay: beta cell apoptosis inhibitors, cytokine rescue, dose response, luminescence, retest (AID 449756); format: functional, cell-based; conditions: Rattus norvegicus;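 note: cell death triggered by IL-1 beta plus TNF-alpha plus IFN-gamma mixture; protective hits raise ATP signal compared with cytokine alone wells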

Chain of 72 kDa type IV collagenase (P08253 whole entry): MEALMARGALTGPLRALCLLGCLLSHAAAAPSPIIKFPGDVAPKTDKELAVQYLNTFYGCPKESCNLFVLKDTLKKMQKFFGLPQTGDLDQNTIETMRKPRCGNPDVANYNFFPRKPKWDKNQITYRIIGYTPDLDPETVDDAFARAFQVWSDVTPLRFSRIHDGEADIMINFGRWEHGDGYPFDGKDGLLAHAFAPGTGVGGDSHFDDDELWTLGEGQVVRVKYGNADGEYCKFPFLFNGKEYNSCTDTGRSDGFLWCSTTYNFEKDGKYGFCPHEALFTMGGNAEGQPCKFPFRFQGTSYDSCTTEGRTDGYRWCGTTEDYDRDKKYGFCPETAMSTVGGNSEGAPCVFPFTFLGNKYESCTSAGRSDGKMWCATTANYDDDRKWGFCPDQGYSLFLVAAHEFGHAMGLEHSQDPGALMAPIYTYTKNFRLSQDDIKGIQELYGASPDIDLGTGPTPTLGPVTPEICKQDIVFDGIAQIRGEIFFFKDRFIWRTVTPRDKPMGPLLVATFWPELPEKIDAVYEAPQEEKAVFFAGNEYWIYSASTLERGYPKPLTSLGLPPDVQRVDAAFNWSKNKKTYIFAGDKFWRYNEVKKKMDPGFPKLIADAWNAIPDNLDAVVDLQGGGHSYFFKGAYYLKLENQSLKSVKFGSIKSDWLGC
Chain of 26S proteasome non-ATPase regulatory subunit 14 (O00487 whole entry): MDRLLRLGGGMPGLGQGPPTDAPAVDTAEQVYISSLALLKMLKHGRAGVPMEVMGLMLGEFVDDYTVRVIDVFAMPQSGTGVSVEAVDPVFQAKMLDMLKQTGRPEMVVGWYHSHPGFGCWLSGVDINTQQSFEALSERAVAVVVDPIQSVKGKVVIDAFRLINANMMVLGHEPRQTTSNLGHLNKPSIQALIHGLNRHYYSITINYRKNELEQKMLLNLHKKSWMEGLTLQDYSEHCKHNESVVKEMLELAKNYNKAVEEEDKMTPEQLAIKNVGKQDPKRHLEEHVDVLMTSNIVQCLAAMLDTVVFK
Chain of Dual specificity protein phosphatase 3 (P51452 whole entry): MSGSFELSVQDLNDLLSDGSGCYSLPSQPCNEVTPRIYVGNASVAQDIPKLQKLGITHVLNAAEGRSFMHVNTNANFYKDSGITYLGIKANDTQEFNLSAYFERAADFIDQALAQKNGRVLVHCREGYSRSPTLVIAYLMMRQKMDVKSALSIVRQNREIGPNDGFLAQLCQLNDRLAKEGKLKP
Chain of Glucose-6-phosphate 1-dehydrogenase (P11413 whole entry): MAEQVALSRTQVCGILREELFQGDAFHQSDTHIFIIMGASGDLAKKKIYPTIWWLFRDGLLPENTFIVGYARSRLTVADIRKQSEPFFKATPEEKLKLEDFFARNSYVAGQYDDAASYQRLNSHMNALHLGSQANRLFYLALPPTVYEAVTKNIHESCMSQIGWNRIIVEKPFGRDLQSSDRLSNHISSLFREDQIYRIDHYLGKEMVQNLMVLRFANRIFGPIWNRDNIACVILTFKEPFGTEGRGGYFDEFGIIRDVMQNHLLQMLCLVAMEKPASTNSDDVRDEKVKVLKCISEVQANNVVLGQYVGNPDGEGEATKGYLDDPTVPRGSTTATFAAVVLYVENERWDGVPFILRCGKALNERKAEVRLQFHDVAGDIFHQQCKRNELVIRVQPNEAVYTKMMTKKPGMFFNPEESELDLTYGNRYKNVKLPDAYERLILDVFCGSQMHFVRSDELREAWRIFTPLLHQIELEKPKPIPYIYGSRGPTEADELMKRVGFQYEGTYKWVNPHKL

SMILES: CCCCN(CC)CCCN=C(S)Nc1ccc2nc(N3CCN(CC)CC3)cc(C)c2c1
- AC50 [1]: 25.7 µM (active)

SMILES: O=C(C1=C(O)C(=O)N(CCCO)C1c1ccc(Br)cc1)c1ccc(Br)cc1 (centres undefined)
- IC50 [2]: 73.4 µM (inactive)
- IC50 [3]: 36.2 µM (inactive)
- IC50 [4]: 58.9 µM (inactive)

SMILES: CCOC(=O)c1c(NC(=O)c2ccc(S(=O)(=O)N3CCOCC3)cc2)sc2c1CCN(C(C)C)C2
- AC50 [1]: 8.89 µM (active)

SMILES: O=C(/C=C/c1cc(Br)ccc1O)c1ccco1
- CC50 [5]: 7.21 µM (active)
- EC50 [6]: 2.26 µM (active)
- EC50 [7]: > 150 µM (inconclusive)
- AC50 [8]: 7.73 µM (active)

SMILES: CCOc1cc(/C=C2\SC(=S)N(NC(=O)c3cccnc3)C2=O)ccc1O
- IC50 (Prothrombin): 35.7 µM (active)
- IC50 [9]: 25.8 µM (active)
- IC50 [10]: > 100 µM (inactive)

SMILES: CC(C)OC(=O)c1c2c(n3ccccc13)C(=O)c1ccccc1C2=O
- EC50 [11]: > 99 µM (inactive)
- IC50 (cells [12]): 0.44 µM (active)
- AC50 [13]: 2.17 µM (active)
- EC50 [14]: > 99 µM (inactive)

SMILES: OCCN1CCN(C(=S)c2ccc(Cl)c(Cl)c2)CC1
- IC50 [15]: > 80 µM (inactive)
- AC50 [16]: 132 µM (active)
- IC50 [17]: 18.4 µM (active)
- IC50 [2]: 0.339 µM (active)
- IC50 [3]: 8.95 µM (active)
- IC50 [18]: 10.8 µM (active)
- IC50 [4]: 1.99 µM (active)

SMILES: COC(=O)c1c(NC(=O)c2nc3ccccc3s2)sc2c1CC(C)(C)NC2(C)C
- IC50 [19]: > 20 µM (inactive)
- EC50 [11]: > 99 µM (inactive)
- EC50 [20]: 8.33 µM (active)
- EC50 [21]: 8.05 µM (active)
- EC50 [22]: 8.54 µM (active)
- EC50 [14]: > 99 µM (inactive)

SMILES: CC(C)[C@H](NC(=O)c1ccccc1Cl)C(=O)Nc1nc(-c2ccccn2)cs1
- AC50 [16]: 73.8 µM (active)
- EC50 (cells [23]): > 350 µM (not active)
- EC50 [24]: 11.7 µM (active)
- EC50 (cells [25]): 24 µM (active)
- IC50 (H9c2): 8.83 µM (active)
- EC50 [26]: 2.23 µM (active)

SMILES: Cc1cc(C)c2c(N)c(C(=O)N/N=C/c3cccs3)sc2n1
- IC50 (Prothrombin): 35.8 µM (active)
- IC50 [9]: 8.64 µM (active)
- IC50 [10]: > 100 µM (inactive)

SMILES: O=C(N/N=C/c1cc([N+](=O)[O-])ccc1O)c1cc(-c2ccccc2)nc2ccccc12
- IC50 (Prothrombin): 10.7 µM (active)
- IC50 [9]: 14.8 µM (active)
- IC50 [10]: > 100 µM (inactive)
- EC50 [27]: 1.83 µM (active)
- EC50 (Streptococcus): 2.65 µM (active)
- AC50 (INS1): 1.24 µM (active)
